Laboratory results taken from paper PMC3988029, “A Trisubstituted Benzimidazole Cell Division Inhibitor with Efficacy against Mycobacterium tuberculosis” (PLoS ONE, 2014).
In brackets after ≈: the same amount, converted by molar mass.

Legend:
M. tuberculosis H37Rv = format: cell-based, Mycobacterium tuberculosis; settings: 2×10^9 cells plated on 1.6 µg/mL, 10 times MIC
[1] = tested on: M. tuberculosis clinical isolates; test: microbe, parasite or virus in culture; format: cell-based; settings: Mycobacterium tuberculosis, read-out: MIC against different clinical strains of M. tuberculosis
M. tuberculosis = format: cell-based; settings: for Enhancement of activity against M. tuberculosis in the presence of the partner drug: checkerboard, SB-P17G-A20 with rifampicin

SMILES | Spontaneous resistant mutants (M. tuberculosis H37Rv) | MIC [1] | Enhancement of activity against M. tuberculosis in the presence of the partner drug (M. tuberculosis) | ΣFIC (M. tuberculosis; rifampicin in combination with SB-P17G-A20)
CN(C)c1cc2[nH]c(C3CCCCC3)nc2cc1NC(=O)c1ccc(OC(F)(F)F)cc1 [SB-P17G-A20] | no single resistant colony was obtained | 0.16 µg/mL (≈ 0.358 µM) | 2–4 fold | 0.75
CO[C@H]1/C=C/O[C@@]2(C)Oc3c(C)c(O)c4c(O)c(c(/C=N/N5CCN(C)CC5)c(O)c4c3C2=O)NC(=O)/C(C)=C\C=C\[C@H](C)[C@H](O)[C@@H](C)[C@@H](O)[C@@H](C)[C@H](OC(C)=O)[C@@H]1C [rifampicin, reference compound] |  |  | 2 fold | 
